The record followed here is US12508286B2, “Composition for treating spinal cord injury, comprising stem cells treated with novel compound” (YJ CERAPEUTICS INC., priority 2019, dated 2025).

Bounds are passed on as bounds.

The test relates to MSCs. In words: Stem cell differentiation confirmed with neural lineage markers. The test is classed as cell-based. As to conditions: MSCs cultured in a medium containing the compound for 5 days. The method, then: Referring to FIGS. 3 and 4, MSCs were cultured in a medium containing the compound for 5 days, and the differentiation status was confirmed using a neural lineage marker. As a result.
MSCs of passage 3 received from Kangstem Biotech were maintained in a KSB3 basal medium containing 10% FBS (Gibco) and supplements.
After passage 1, MSCs of passage 4 were stocked and stored in liquid nitrogen.
Referring to FIG. 1, MSCs of passage 5 were seeded at 1 mL per well in 12 wells diluted to 1.1×10^4/mL.
After 4 hours, the cells were treated with 40 μM of L1 or L3 or 30 μM of L2 (Formula 1).
After three days, the medium was changed with a new medium, and the cells were treated with the compound in the same manner and then additionally cultured for two days.

In the case of `CCc1ccc(N(C(=O)COC)c2nc3cc(Cl)ccc3o2)cc1` [L2, N-(5-Chlorobenzo[d]oxazol-2-yl)-N-(4-ethylphenyl)-2-methoxyacetamide], the GFAP expression entry was “hardly expressed”, the Nestin expression entry is on record as “hardly expressed” and the Tuj1-positive cells is given as not below 90%.
